Assay results from BindingDB's records for patent US12030880 (Chia Tai Tianqing Pharmaceutical Group, 2024).

Key:
[1] = target: T1, Bromodomain-containing protein 4 [44-168] (Human, UniProt O60885); assay: In Vitro BRD4 (BD1) Enzymatic Activity Assay
T1 construct: 44-168
Method: In the present application, IC50 values of the compounds in inhibiting BRD4 (BD1) enzyme binding reaction were determined by homogeneous time resolved fluorescence (HTRF). A compounds was serially diluted 5-fold with 100% DMSO starting from 0.2 mM (7 concentrations in total), and then 2 μL of the compound at each concentration was added to 48 μL of a reaction buffer (20 mM HEPES pH 7.5, 150 mM NaCl, 5 mM DTT, 0.005% Tween 20, and 100 μg/mL BSA) for dilution, and mixed well. 2.5 μL of the resulting mixture was added to a 384-well plate (OptiPlate-384, purchased from PerkinElmer), then 5 μL of GST-BRD4 (BD1, 44-168 aa) (final concentration: 1 nM) was added, and the resulting mixture was centrifuged, and fully mixed. 2.5 μL of a short peptide Biotin-AHA-SGRGK(Ac)GGK(Ac)GLGK(Ac)GGAK(Ac) RHRKV (final concentration: 100 nM) was then added to initiate the reaction (total reaction volume: 10 μL). […] After being incubated in the incubator for another 1 hour, the fluorescence values (excited at 320 nm, emitted light at 665 nm and 620 nm being detected, and the ratio of the two being the enzyme binding signal) were read on Envision (purchased from PerkinElmer).

[2] = target: T2, Bromodomain-containing protein 4 [349-460] (Homo sapiens, UniProt O60885); assay: In Vitro BRD4 (BD2) Enzymatic Activity Assay
T2 construct: 349-460
Method: In the present application, IC50 values of the compounds in inhibiting BRD4 (BD2) enzyme binding reaction were determined by homogeneous time resolved fluorescence (HTRF). A compound was serially diluted 5-fold with 100% DMSO starting from 1 mM (7 concentrations in total), and then 2 μL of the compound at each concentration was added to 18 μL of a reaction buffer (20 mM HEPES pH 7.5, 150 mM NaCl, 5 mM DTT, 0.005% Tween 20, and 100 μg/mL BSA) for dilution. After being mixed well, 2 μL of the compound at each concentration was added to 48 μL of the above reaction buffer for dilution, and mixed well (final concentration of the compound in DMSO: 0.1%). 2.5 μL of the resulting mixture was added to a 384-well plate (OptiPlate-384, purchased from PerkinElmer), then 5 μL of GST-BRD4 (BD2, 349-460 aa) (final concentration: 2 nM) was added, and the resulting mixture was centrifuged, and fully mixed. 2.5 μL of a peptide Biotin-AHA-SGRGK(Ac)GGK(Ac)GLGK(Ac)GGAK(Ac) RHRKV (final concentration: 200 nM) was then added to initiate the reaction (total reaction volume: 10 μL). […] After being incubated in the incubator for another 1 hour, the fluorescence values (excited at 320 nm, emitted light at 665 nm and 620 nm being detected, and the ratio of the two being the enzyme binding signal) were read on Envision (purchased from PerkinElmer).

| Compound | IC50 [1] [nM] | IC50 [2] [nM] |
| --- | --- | --- |
| CCNC(=O)c1cc2c(-c3cc(N=S(C)(C)=O)ccc3Oc3ccc(S(C)(=O)=O)cc3)cn(C)c(=O)c2[nH]1 [US12030880, Example 1] | 14.7 | 0.51 |
| Cn1cc(-c2cc(N=S(C)(C)=O)ccc2Oc2ccc(C#N)cc2F)c2cc[nH]c2c1=O [US12030880, Example 2] | 1.4 | 0.98 |
